Patent US11780840B2 (Incyte Corporation, priority 2020, dated 2023)

Legend:
[1] = target: T1, catalytic domain (JH1, amino acids 826-1132) of human JAK2 (Homo sapiens, UniProt O60674); test: JAK2 LanthaScreen JH1 Binding Assay; conditions: JAK2 JH1 (1.5 nM), 50 nM fluorescent JAK2-JH1 tracer, 2 hours at 25° C.; read-out: JH1 BIND
T1 construct: catalytic domain (JH1, amino acids 826-1132) of human JAK2; FLAG (N); purchased Carna Biosciences 08-445-20N; host or cells: baculovirus expression system
T1 sequence (O60674 826-1132): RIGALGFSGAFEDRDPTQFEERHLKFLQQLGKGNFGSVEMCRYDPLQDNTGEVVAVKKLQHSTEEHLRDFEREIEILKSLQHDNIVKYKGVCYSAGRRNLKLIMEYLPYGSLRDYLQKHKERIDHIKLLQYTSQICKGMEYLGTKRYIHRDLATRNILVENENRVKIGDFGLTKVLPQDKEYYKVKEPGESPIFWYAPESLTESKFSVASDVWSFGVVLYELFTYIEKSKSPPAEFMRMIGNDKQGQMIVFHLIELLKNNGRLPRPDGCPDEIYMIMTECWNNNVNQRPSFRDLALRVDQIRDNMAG
Experimental: Example A. JAK2 LanthaScreen JH1 Binding Assay
JAK2 JH1 binding assay utilizes catalytic domain (JH1, amino acids 826-1132) of human JAK2 expressed as N-terminal FLAG-tagged, biotinylated protein in a baculovirus expression system (Carna Biosciences, Product #08-445-20N). The assay was conducted in black 384-well polystyrene plates in a final reaction volume of 20 μL. JAK2 JH1 (1.5 nM) was incubated with compounds (100 nL serially diluted in DMSO) in the presence of 50 nM fluorescent JAK2-JH1 tracer and 0.5 nM Streptavidin-Tb cryptate (Cisbio Part #610SATLB) in assay buffer (50 mM Tris, pH=7.5, 10 mM MgCl2, 0.01% Brij-35, 0.1% BSA, 1 mM EGTA, 5% Glycerol and 5 mM DTT). Non-specific binding was accessed in the presence of 2 mM ATP. After incubation for 2 hours at 25° C., LanthaScreen signals were read on a PHERAstar FS plate reader (BMG LABTECH). Data was analyzed with IDBS XLfit and GraphPad Prism 5.0 software using a four parameter dose response curve to determine IC50 for each compound.

[2] = target: T2, pseudo-kinase domain (JH2, amino-acids 536-812 with 3 surface mutations W659A, W777A, F794H) of human V617F mutant JAK2 (Homo sapiens, UniProt O60674, F794H/V617F/W659A/W777A); test: JAK2 LanthaScreen JH2-V617F Binding Assay; conditions: JAK2 JH2-V617F (0.26 nM), 50 nM Fluorescent JAK2-JH2 Tracer, 1 hour at 25° C.; read-out: JH2 BIND V617F
T2 construct: pseudo-kinase domain (JH2, amino-acids 536-812 with 3 surface mutations W659A, W777A, F794H); His (C); Avi (biotinylated) (C); purchased BPS Bioscience 79498; host or cells: baculovirus expression system
T2 sequence (O60674 536-812 V617F/W659A/W777A/F794H): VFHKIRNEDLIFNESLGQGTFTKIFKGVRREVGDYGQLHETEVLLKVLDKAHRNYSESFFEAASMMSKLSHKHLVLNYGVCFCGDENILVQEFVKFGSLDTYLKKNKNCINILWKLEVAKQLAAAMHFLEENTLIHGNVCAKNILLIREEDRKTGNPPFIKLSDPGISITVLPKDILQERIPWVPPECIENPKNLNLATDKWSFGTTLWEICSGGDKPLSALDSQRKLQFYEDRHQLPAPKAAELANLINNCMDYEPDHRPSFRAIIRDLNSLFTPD
Experimental: Example C. JAK2 LanthaScreen JH2-V617F Binding Assay
(§1) JAK2 JH2-V617F binding assay utilizes pseudo-kinase domain (JH2, amino-acids 536-812 with 3 surface mutations W659A, W777A, F794H) of human V617F mutant JAK2 expressed as C-terminal His-Avi-tagged, biotinylated protein in a baculovirus expression system (BPS Bioscience, Catalog #79498). The assay was conducted in black 384-well polystyrene plates in a final reaction volume of 20 μL. JAK2 JH2-V617F (0.26 nM) was incubated with compounds (100 nL serially diluted in DMSO) in the presence of 50 nM Fluorescent JAK2-JH2 Tracer (MedChem Express Catalog #HY-102055) and 0.25 nM Streptavidin-Tb cryptate (Cisbio Part #610SATLB) in assay buffer (50 mM Tris, pH=7.5, 10 mM MgCl2, 0.01% Brij-35, 0.1% BSA, 1 mM EGTA, 5% Glycerol and 5 mM DTT). Non-specific binding was accessed in the presence of 2 mM ATP. After incubation for 1 hour at 25° C., LanthaScreen signals were read on a PHERAstar FS plate reader (BMG LABTECH). Data was analyzed with IDBS XLfit and GraphPad Prism 5.0 software using a four parameter dose response curve to determine IC50 for each compound.

[3] = target: T3, pseudo-kinase domain (JH2, amino-acids 536-812 with 3 surface mutations W659A, W777A, F794H) of human Wild Type JAK2 (Homo sapiens, UniProt O60674, F794H/W659A/W777A); test: JAK2 LanthaScreen JH2-WT Binding Assay; conditions: JAK2 JH2-WT (0.145 nM), 50 nM Fluorescent JAK2-JH2 Tracer, 1 hour at 25° C.; read-out: JH2 BIND WT
T3 construct: pseudo-kinase domain (JH2, amino-acids 536-812 with 3 surface mutations W659A, W777A, F794H); His (C); Avi (biotinylated) (C); purchased BPS Bioscience 79463; host or cells: baculovirus expression system
T3 sequence (O60674 536-812 W659A/W777A/F794H): as the sequence (O60674 536-812 V617F/W659A/W777A/F794H) above, with F82V counted along it
Experimental: Example B. JAK2 LanthaScreen JH2-WT Binding Assay
as §1, with “JH2-WT” for “JH2-V617F”, “Wild Type” for “V617F mutant”, “#79463).” for “#79498).”, “JH2-WT (0.145” for “JH2-V617F (0.26”

SMILES | IC50 [1] [nM] | IC50 [2] [nM] | IC50 [3] [nM]
CCN1CCN(c2ccc(-c3cc4c(ncc5c4n(CC(=O)N4CCCCC4)c(=O)n5C)[nH]3)cc2)CC1 [Example 17, 7-(4-(4-Ethylpiperazin-1-yl)phenyl)-3-methyl-1-(2-oxo-2-(piperidin-1-yl)ethyl)-3,6-dihydroimidazo[4,5-d]pyrrolo[2,3-b]pyridin-2(1H)-one] | > 1000 | > 1000 | > 1000
CC(C)n1c(=O)n(C)c2cnc3[nH]c(-c4ccc(CN5CCC(S(C)(=O)=O)CC5)cc4)c(-c4ccccc4)c3c21 [Example 18, 1-Isopropyl-3-methyl-7-(4-((4-(methylsulfonyl)piperidin-1-yl)methyl)phenyl)-8-phenyl-3,6-dihydroimidazo[4,5-d]pyrrolo[2,3-b]pyridin-2(1H)-one] | 100 to 500 | ≤ 10 | ≤ 10
COc1ccc(-c2c(-c3ccc(CN4CCC(S(C)(=O)=O)CC4)cc3)[nH]c3ncc4c(c23)n(C2CCCCC2)c(=O)n4C)cc1 [Example 19, 1-Cyclohexyl-8-(4-methoxyphenyl)-3-methyl-7-(4-((4-(methylsulfonyl)piperidin-1-yl)methyl)phenyl)-3,6-dihydroimidazo [4,5-d]pyrrolo[2,3-b]pyridin-2(1H)-one] | 10 to 100 | ≤ 10 | ≤ 10
COc1ccc(-c2c(-c3ccc(CN4CCC(S(C)(=O)=O)CC4)cc3)[nH]c3ncc4c(c23)n(CC(C)C)c(=O)n4C)cc1 [Example 20, 1-Isobutyl-8-(4-methoxyphenyl)-3-methyl-7-(4-((4-(methylsulfonyl)piperidin-1-yl)methyl)phenyl)-3,6-dihydroimidazo [4,5-d]pyrrolo[2,3-b]pyridin-2(1H)-one] | 100 to 500 | ≤ 10 | ≤ 10
COc1ccc(-c2c(-c3ccc(CN4CCC(S(C)(=O)=O)CC4)cc3)[nH]c3ncc4c(c23)n(C2CCC2)c(=O)n4C)cc1 [Example 21, 1-Cyclobutyl-8-(4-methoxyphenyl)-3-methyl-7-(4-((4-(methylsulfonyl)piperidin-1-yl)methyl)phenyl)-3,6-dihydroimidazo [4,5-d]pyrrolo [2,3-b]pyridin-2(1H)-one] | 100 to 500 | ≤ 10 | ≤ 10
COc1ccc(-c2c(-c3ccc(CN4CCC(S(C)(=O)=O)CC4)cc3)[nH]c3ncc4c(c23)n(-c2ccccc2)c(=O)n4C)cc1 [Example 22, 8-(4-Methoxyphenyl)-3-methyl-7-(4-((4-(methylsulfonyl)piperidin-1-yl)methyl)phenyl)-1-phenyl-3,6-dihydroimidazo[4,5-d]pyrrolo[2,3-b]pyridin-2(1H)-one] | 100 to 500 | 10 to 100 | 10 to 100
COc1ccc(-c2c(-c3ccc(CN4CCC(S(C)(=O)=O)CC4)cc3)[nH]c3ncc4c([nH]c(=O)n4C)c23)cc1 [Example 23, 8-(4-Methoxyphenyl)-3-methyl-7-(4-((4-(methylsulfonyl)piperidin-1-yl)methyl)phenyl)-3,6-dihydroimidazo[4,5-d]pyrrolo[2,3-b]pyridin-2(1H)-one] | 100 to 500 | 100 to 500 | 10 to 100
COC1CC=C(c2c(-c3ccc(CN4CCC(S(C)(=O)=O)CC4)cc3)[nH]c3ncc4c(c23)n(C(C)(C)C)c(=O)n4C)CC1 (stereo not drawn) [Example 24, 1-(tert-Butyl)-8-(4-methoxycyclohex-1-en-1-yl)-3-methyl-7-(4-((4-(methylsulfonyl)piperidin-1-yl)methyl)phenyl)-3,6-dihydroimidazo[4,5-d]pyrrolo[2,3-b] pyridin-2(1H)-one] | 500 to 1000 | ≤ 10 | ≤ 10
CC(C)n1c(=O)n(C)c2cnc3[nH]c(-c4ccc(CN5CCC(S(C)(=O)=O)CC5)cc4)c(-c4ccc(C#N)cc4)c3c21 [Example 25, 4-(1-Isopropyl-3-methyl-7-(4-((4-(methylsulfonyl)piperidin-1-yl)methyl)phenyl)-2-oxo-1,2,3,6-tetrahydroimidazo [4,5-d]pyrrolo[2,3-b]pyridin-8-yl)benzonitrile] | 500 to 1000 | ≤ 10 | ≤ 10
CC(C)n1c(=O)n(C)c2cnc3[nH]c(-c4ccc(CN5CCC(S(C)(=O)=O)CC5)cc4)c(-c4ccc(C5(C#N)CC5)cc4)c3c21 [Example 26, 1-(4-(1-Isopropyl-3-methyl-7-(4-((4-(methylsulfonyl)piperidin-1-yl)methyl)phenyl)-2-oxo-1,2,3,6-tetrahydroimidazo [4,5-d]pyrrolo[2,3-b]pyridin-8-yl)phenyl) cyclopropane-1-carbonitrile] | > 1000 | ≤ 10 | ≤ 10
CC(C)n1c(=O)n(C)c2cnc3[nH]c(-c4ccc(CN5CCC(S(C)(=O)=O)CC5)cc4)c(-c4cnn(Cc5ccc(C(=O)O)cc5)c4)c3c21 [Example 27, 4-((4-(1-Isopropyl-3-methyl-7-(4-((4-(methylsulfonyl)piperidin-1-yl)methyl)phenyl)-2-oxo-1,2,3,6-tetrahydroimidazo [4,5-d]pyrrolo[2,3-b]pyridin-8-yl)-1H-pyrazol-1-yl)methyl)benzoic acid] | 100 to 500 | ≤ 10 | ≤ 10
Cn1c(=O)n(C2CCCC2)c2c3c(-c4ccccc4)c(-c4ccc(CN5CCC(S(C)(=O)=O)CC5)cc4)[nH]c3ncc21 [Example 28, 1-Cyclopentyl-3-methyl-7-(4-((4-(methylsulfonyl)piperidin-1-yl)methyl)phenyl)-8-phenyl-3,6-dihydroimidazo[4,5-d]pyrrolo[2,3-b]pyridin-2(1H)-one] | 100 to 500 | ≤ 10 | ≤ 10
Cn1c(=O)n(C2CCCC2)c2c3c(-c4ccccc4)c(-c4cnn(CS(C)(=O)=O)c4)[nH]c3ncc21 [Example 29, 1-Cyclopentyl-3-methyl-7-(1-((methylsulfonyl)methyl)-1H-pyrazol-4-yl)-8-phenyl-3,6-dihydroimidazo[4,5-d]pyrrolo[2,3-b]pyridin-2(1H)-one] | 100 to 500 | ≤ 10 | ≤ 10
Cn1c(=O)n(C2CCCC2)c2c3c(-c4ccc(C5(C#N)CC5)cc4)c(-c4ccc(CN5CCC(S(C)(=O)=O)CC5)cc4)[nH]c3ncc21 [Example 30, 1-(4-(1-Cyclopentyl-3-methyl-7-(4-((4-(methylsulfonyl)piperidin-1-yl)methyl)phenyl)-2-oxo-1,2,3,6-tetrahydroimidazo [4,5-d]pyrrolo[2,3-b]pyridin-8-yl)phenyl)cyclo-propane-1-carbonitrile] | 100 to 500 | ≤ 10 | ≤ 10
